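Cells were grown in 96-well plates and exposed to each compound for 48 hours at five concentrations; endpoints were interpolated linearly between bracketing concentrations, or set to the highest concentration if not reached. At the GI50, growth is halved.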 Calls of active or inactive are those of the source. No stated cut-off is given here; in the data, active = GI50 up to about 1.1 µM and inactive = higher.
Key:
Experiment in all cases: NCI anticancer screen, dose series, 48 h
786-0 = system: 786-0
A498 = system: A498
A549 = system: A549
ACHN = system: ACHN
CAKI-1 = system: CAKI-1
CCRF-CEM = system: CCRF-CEM
COLO 205 = system: COLO 205
DU-145 = system: DU-145
EKVX = system: EKVX
HCC 2998 = system: HCC 2998
HCT-116 = system: HCT-116
HCT-15 = system: HCT-15
HL-60 = system: HL-60
HOP-62 = system: HOP-62
HOP-92 = system: HOP-92
HT-29 = system: HT-29
Hs-578T = system: Hs-578T
IGROV-1 = system: IGROV-1
K562 = system: K562
KM12 = system: KM12
LOX IMVI = system: LOX IMVI
M14 = system: M14
MCF7 = system: MCF7
MDA-MB-435 = system: MDA-MB-435
MDA-N = system: MDA-N
MOLT-4 = system: MOLT-4
Malme-3M = system: Malme-3M
NCI-H226 = system: NCI-H226
NCI-H23 = system: NCI-H23
NCI-H460 = system: NCI-H460
NCI-H522 = system: NCI-H522
OVCAR-3 = system: OVCAR-3
OVCAR-4 = system: OVCAR-4
OVCAR-5 = system: OVCAR-5
OVCAR-8 = system: OVCAR-8
PC-3 = system: PC-3
RPMI-8226 = system: RPMI-8226
SF-268 = system: SF-268
SF-539 = system: SF-539
SK-MEL-28 = system: SK-MEL-28
SK-MEL-2 = system: SK-MEL-2
SK-MEL-5 = system: SK-MEL-5
SK-OV-3 = system: SK-OV-3
SNB-19 = system: SNB-19
SNB-75 = system: SNB-75
SR = system: SR
SW-620 = system: SW-620
T47D = system: T47D
TK-10 = system: TK-10
U-251 = system: U-251
UACC-257 = system: UACC-257
UACC-62 = system: UACC-62
UO-31 = system: UO-31
MDA-MB-231 = system: MDA-MB-231
NCI/ADR-RES = system: NCI/ADR-RES
RXF 393 = system: RXF 393
SF-295 = system: SF-295
SN12C = system: SN12C

O=C1c2ccccc2N1C(=O)c1ccccc1[N+](=O)[O-]
GI50 (786-0): 57 µM (inactive)
GI50 (A498): > 100 µM (inactive)
GI50 (A549): 45.2 µM (inactive)
GI50 (ACHN): 78.9 µM (inactive)
GI50 (CAKI-1): 92 µM (inactive)
GI50 (CCRF-CEM): 48.9 µM (inactive)
GI50 (COLO 205): 61.1 µM (inactive)
GI50 (DU-145): > 100 µM (inactive)
GI50 (EKVX): > 100 µM (inactive)
GI50 (HCC 2998): > 100 µM (inactive)
GI50 (HCT-116): 36.1 µM (inactive)
GI50 (HCT-15): 44.2 µM
GI50 (HL-60): > 10 µM (inactive)
GI50 (HOP-62): 45.4 µM (inactive)
GI50 (HOP-92): > 100 µM (inactive)
GI50 (HT-29): 88.1 µM (inactive)
GI50 (Hs-578T): 56.1 µM (inactive)
GI50 (IGROV-1): > 100 µM (inactive)
GI50 (K562): > 100 µM (inactive)
GI50 (KM12): 50 µM (inactive)
GI50 (LOX IMVI): 32.1 µM (inactive)
GI50 (M14): 59.7 µM (inactive)
GI50 (MCF7): 97.1 µM (inactive)
GI50 (MDA-MB-435): > 100 µM (inactive)
GI50 (MDA-N): 74.6 µM (inactive)
GI50 (MOLT-4): > 100 µM (inactive)
GI50 (Malme-3M): 29.6 µM (inactive)
GI50 (NCI-H226): 12.3 µM (inactive)
GI50 (NCI-H23): > 100 µM (inactive)
GI50 (NCI-H460): > 100 µM (inactive)
GI50 (NCI-H522): 91.2 µM (inactive)
GI50 (OVCAR-3): 18.6 µM (inactive)
GI50 (OVCAR-4): 30 µM (inactive)
GI50 (OVCAR-5): > 100 µM (inactive)
GI50 (OVCAR-8): 25.1 µM (inactive)
GI50 (PC-3): > 100 µM (inactive)
GI50 (RPMI-8226): 64.4 µM (inactive)
GI50 (SF-268): 39.9 µM (inactive)
GI50 (SF-539): 32.2 µM (inactive)
GI50 (SK-MEL-28): > 100 µM (inactive)
GI50 (SK-MEL-2): 90.8 µM (inactive)
GI50 (SK-MEL-5): 51.8 µM (inactive)
GI50 (SK-OV-3): > 100 µM (inactive)
GI50 (SNB-19): > 100 µM (inactive)
GI50 (SNB-75): 53.3 µM (inactive)
GI50 (SR): > 100 µM (inactive)
GI50 (SW-620): > 100 µM (inactive)
GI50 (T47D): > 100 µM (inactive)
GI50 (TK-10): > 100 µM (inactive)
GI50 (U-251): 90.6 µM (inactive)
GI50 (UACC-257): > 100 µM (inactive)
GI50 (UACC-62): > 100 µM (inactive)
GI50 (UO-31): > 100 µM (inactive)

S=C(S)NCNC(=S)S
GI50 (786-0): > 100 µM (inactive)
GI50 (A498): 89.7 µM (inactive)
GI50 (A549): > 100 µM (inactive)
GI50 (ACHN): > 100 µM (inactive)
GI50 (CAKI-1): > 100 µM (inactive)
GI50 (CCRF-CEM): > 100 µM (inactive)
GI50 (COLO 205): > 100 µM (inactive)
GI50 (DU-145): > 100 µM (inactive)
GI50 (EKVX): > 100 µM (inactive)
GI50 (HCC 2998): > 100 µM (inactive)
GI50 (HCT-116): > 100 µM (inactive)
GI50 (HCT-15): > 100 µM
GI50 (HL-60): > 100 µM (inactive)
GI50 (HOP-62): > 100 µM (inactive)
GI50 (HOP-92): > 100 µM (inactive)
GI50 (HT-29): > 100 µM (inactive)
GI50 (Hs-578T): > 100 µM (inactive)
GI50 (IGROV-1): > 100 µM (inactive)
GI50 (K562): > 100 µM (inactive)
GI50 (KM12): > 100 µM (inactive)
GI50 (LOX IMVI): > 100 µM (inactive)
GI50 (M14): > 100 µM (inactive)
GI50 (MCF7): > 100 µM (inactive)
GI50 (MDA-MB-231): > 100 µM (inactive)
GI50 (MDA-MB-435): > 100 µM (inactive)
GI50 (MDA-N): > 100 µM (inactive)
GI50 (MOLT-4): > 100 µM (inactive)
GI50 (Malme-3M): > 100 µM (inactive)
GI50 (NCI-H23): > 100 µM (inactive)
GI50 (NCI-H460): > 100 µM (inactive)
GI50 (NCI/ADR-RES): > 100 µM (inactive)
GI50 (OVCAR-3): > 100 µM (inactive)
GI50 (OVCAR-4): > 100 µM (inactive)
GI50 (OVCAR-5): > 100 µM (inactive)
GI50 (OVCAR-8): > 100 µM (inactive)
GI50 (PC-3): > 100 µM (inactive)
GI50 (RPMI-8226): > 100 µM (inactive)
GI50 (RXF 393): > 100 µM (inactive)
GI50 (SF-268): > 100 µM (inactive)
GI50 (SF-295): > 100 µM (inactive)
GI50 (SF-539): > 100 µM (inactive)
GI50 (SK-MEL-28): > 100 µM (inactive)
GI50 (SK-MEL-5): > 100 µM (inactive)
GI50 (SK-OV-3): > 100 µM (inactive)
GI50 (SN12C): > 100 µM (inactive)
GI50 (SNB-19): > 100 µM (inactive)
GI50 (SNB-75): > 100 µM (inactive)
GI50 (SW-620): > 100 µM (inactive)
GI50 (T47D): > 100 µM (inactive)
GI50 (TK-10): > 100 µM (inactive)
GI50 (U-251): > 100 µM (inactive)
GI50 (UACC-257): > 100 µM (inactive)
GI50 (UACC-62): > 100 µM (inactive)
GI50 (UO-31): > 100 µM (inactive)

COc1ccc(C2=C(OC(=O)N(C)C)c3cccn3-c3cc(C(F)(F)F)ccc3S2)cc1
GI50 (786-0): > 10 µM (inactive)
GI50 (A549): > 10 µM (inactive)
GI50 (CAKI-1): > 10 µM (inactive)
GI50 (CCRF-CEM): > 10 µM (inactive)
GI50 (COLO 205): > 10 µM (inactive)
GI50 (DU-145): > 10 µM (inactive)
GI50 (EKVX): > 10 µM (inactive)
GI50 (HCC 2998): > 10 µM (inactive)
GI50 (HCT-15): > 10 µM
GI50 (HL-60): 6.03 µM (inactive)
GI50 (HOP-62): > 10 µM (inactive)
GI50 (HT-29): > 10 µM (inactive)
GI50 (IGROV-1): > 10 µM (inactive)
GI50 (K562): > 10 µM (inactive)
GI50 (KM12): 0.467 µM (active)
GI50 (LOX IMVI): > 10 µM (inactive)
GI50 (M14): > 10 µM (inactive)
GI50 (MCF7): 9.29 µM (inactive)
GI50 (MDA-N): > 10 µM (inactive)
GI50 (MOLT-4): 4.79 µM (inactive)
GI50 (Malme-3M): > 10 µM (inactive)
GI50 (NCI-H23): 8.81 µM (inactive)
GI50 (OVCAR-8): > 10 µM (inactive)
GI50 (PC-3): 4.3 µM (inactive)
GI50 (RPMI-8226): 3.75 µM (inactive)
GI50 (SF-268): > 10 µM (inactive)
GI50 (SF-295): > 10 µM (inactive)
GI50 (SK-MEL-28): > 10 µM (inactive)
GI50 (SK-MEL-5): > 10 µM (inactive)
GI50 (SK-OV-3): > 10 µM (inactive)
GI50 (SN12C): > 10 µM (inactive)
GI50 (SNB-75): > 10 µM (inactive)
GI50 (SR): 4.99 µM (inactive)
GI50 (SW-620): > 10 µM (inactive)
GI50 (T47D): 3.47 µM (inactive)
GI50 (TK-10): > 10 µM (inactive)
GI50 (UACC-257): > 10 µM (inactive)
GI50 (UACC-62): > 10 µM (inactive)

— ChEMBL document CHEMBL1201862, “PubChem BioAssay data set” (2004)
